In patent US5183883A, “Conjugate of adriamycin and cyclodextrin” (Mercian Corporation, priority 1990, dated 1993):
≈ marks a conversion by molar mass, not a printed value. Where a name gives a salt, the structure may show the parent alone. Read-outs that look alike come from different tables or passages of the source.

How the values were obtained:
[1] = Sustained release test (adriamycin liberated in phosphoric acid buffer physiological saline); type: physicochemical; conditions: 1 mg in 0.0067 M phosphoric acid buffer physiological saline, initial pH=7.36-7.37, 37° C., HPLC
Experimental: One milligram of each of the adriamycin derivatives obtained in Examples 1, 2, 3, 4, 5 and 6 to be described later was dissolved in 0.0067 M phosphoric acid buffer physiological saline solution made by Bioproducts, Inc. (initial pH=7.36-7.37), and the solution was kept at 37° C. The amount of adriamycin liberated in the solution was analyzed by HPLC [column=YMC Pack A-312 S-5 120A ODS; mobile phase=0.05M ammonium formate buffer (pH=4.0):- acetonitrile=7:4, flow rate=1 ml/min; measuring wavelength=254 nm; retention time of adriamycin under the present conditions=3.8 minutes].
Consequently, a 50 % released time of adriamycin from the adriamycin derivatives is as follows, and sustained release was confirmed.

[2] = test system: mouse leukemia cells; assay: Cytotoxicity test; conditions: for Cytotoxicity, IC50: 48 hours, 37° C., RPMI1640 with 10% horse serum, trypan blue
Experimental: 5×10^4 cells/ml of mouse leukemia cells were inoculated in a RPMI1640 culture medium containing 10% horse serum, and the compound of the present invention was added to this such that the final concentration became 0.001 to 10.0 μg/ml. Cultivation was conducted in a carbon dioxide gas incubator (air containing 5% carbon dioxide gas) at 37° C. for 48 hours.

[3] = test system: L1210 leukemia; assay: Test of anti-cancer activity to L1210 leukemia mice; type: in vivo, CDF1 mice; conditions: i.p., 10 days; for Survived mice/test mice: observed 60 days
Experimental: 1×10^5 L1210 leukemia cells were inoculated into CDF1 mice intraperitoneally, and 24 hours later, the aqueous solution of the compound of this invention was intraperitoneally administered successively over 10 days. Test groups, each consisting of 6 mice, were fed and observed for 60 days, and percent prolongation of life (T/C; %) was found.

[4] = Toxicity test LD50; type: in vivo; conditions: mice, intravenously administered once
Excerpt: LD50 given when the adriamycin derivatives of this invention were intravenously administered once in mice is as follows.

[5] = intravenous injection in mice; Collection of Medicaments in Japan, 1989; cited from earlier work
[6] = 9.77 mg/kg/day (2.5 as adriamycin)
[7] = 19.53 mg/kg/day (5.0 as adriamycin)
[8] = 39.06 mg/kg/day (10.0 as adriamycin)
[9] = 78.13 mg/kg/day (20.0 as adriamycin)
[10] = 156.25 mg/kg/day (40.0 as adriamycin)
[11] = 9.54 mg/kg/day (2.5 as adriamycin)
[12] = 13.36 mg/kg/day (3.5 as adriamycin)
[13] = 19.08 mg/kg/day (5.0 as adriamycin)
[14] = 26.72 mg/kg/day (7.0 as adriamycin)
[15] = 38.17 mg/kg/day (10.0 as adriamycin)

With `COc1cccc2c1C(=O)c1c(O)c3c(c(O)c1C2=O)C[C@@](O)(C(=O)COC(=O)c1ccccc1C(=O)OC[C@H]1O[C@@H]2O[C@H]4[C@H](O)[C@@H](O)[C@@H](O[C@H]5[C@H](O)[C@@H](O)[C@@H](O[C@H]6[C@H](O)[C@@H](O)[C@@H](O[C@H]7[C@H](O)[C@@H](O)[C@@H](O[C@H]8[C@H](O)[C@@H](O)[C@@H](O[C@H]9[C@H](O)[C@@H](O)[C@@H](O[C@H]%10[C@H](O)[C@@H](O)[C@@H](O[C@H]1[C@H](O)[C@H]2O)O[C@@H]%10CO)O[C@@H]9CO)O[C@@H]8CO)O[C@@H]7CO)O[C@@H]6CO)O[C@@H]5CO)O[C@@H]4CO)C[C@@H]3O[C@H]1C[C@H](N)[C@H](O)[C@H](C)O1` [Example 6-APC, adriamycin (14-position)-phthalic acid-(6-position) γ-cyclodextrin conjugate] the “50 % released time of adriamycin from the adriamycin derivatives” value (from here on “50 % released time of adriamycin”) [1] was “about 45 hours” and the “Cytotoxicity, IC50” value [2] was 0.49 µg/mL.
For “adriamycin-phthalic acid-γ-cyclodextrin conjugate [APC]”, the “50 % released time of adriamycin” value [1] was “about 20 hours”, the “Cytotoxicity, IC50” value [2] was 0.32 µg/mL and the “Anti-cancer activity, T/C (%)” value [3, 6] was 164%. For the same compound, the Survived mice/test mice [3, 6] was 0/6, the “Anti-cancer activity, T/C (%)” value [3, 7] was 234% and the Survived mice/test mice [3, 7] was 0/6. For the same compound, the “Anti-cancer activity, T/C (%)” value [3, 8] was 468%, the Survived mice/test mice [3, 8] was 2/6 and the “Anti-cancer activity, T/C (%)” value [3, 9] was 475%. For the same compound, the Survived mice/test mice [3, 9] was 0/6, the “Anti-cancer activity, T/C (%)” value [3, 10] was 143% and the Survived mice/test mice [3, 10] was 0/6. The LD50 ([4]; as derivative) was 555 mg/kg and the LD50 as adriamycin ([4]; calculated as adriamycin) was 147 mg/kg as adriamycin.
In the case of “adriamycin-succinic acid-γ-cyclodextrin conjugate [ASC]”, the “Anti-cancer activity, T/C (%)” value [3, 11] is reported as 207%, the Survived mice/test mice [3, 11] is reported as 0/6 and the “Anti-cancer activity, T/C (%)” value [3, 12] is reported as 545%. The Survived mice/test mice [3, 12] was 3/6, the “Anti-cancer activity, T/C (%)” value [3, 13] was 552% and the Survived mice/test mice [3, 13] was 3/6. For the same compound, the “Anti-cancer activity, T/C (%)” value [3, 14] was 193%, the Survived mice/test mice [3, 14] was 0/6 and the “Anti-cancer activity, T/C (%)” value [3, 15] was 159%. The Survived mice/test mice [3, 15] was 0/6.
With `COc1cccc2c1C(=O)c1c(O)c3c(c(O)c1C2=O)C[C@@](O)(C(=O)COC(=O)C1CCCCC1C(=O)OC[C@H]1O[C@@H]2O[C@H]4[C@H](O)[C@@H](O)[C@@H](O[C@H]5[C@H](O)[C@@H](O)[C@@H](O[C@H]6[C@H](O)[C@@H](O)[C@@H](O[C@H]7[C@H](O)[C@@H](O)[C@@H](O[C@H]8[C@H](O)[C@@H](O)[C@@H](O[C@H]9[C@H](O)[C@@H](O)[C@@H](O[C@H]%10[C@H](O)[C@@H](O)[C@@H](O[C@H]1[C@H](O)[C@H]2O)O[C@@H]%10CO)O[C@@H]9CO)O[C@@H]8CO)O[C@@H]7CO)O[C@@H]6CO)O[C@@H]5CO)O[C@@H]4CO)C[C@@H]3O[C@H]1C[C@H](N)[C@H](O)[C@H](C)O1` (some centres unmarked) [Example 6-ACC, adriamycin (14-position)-ciscyclohexanedicarboxylic acid-(6-position) γ-cyclodextrin conjugate] the “50 % released time of adriamycin” value [1] was over 70 h and the “Cytotoxicity, IC50” value [2] was 2.07 µg/mL.
In the case of `COc1cccc2c1C(=O)c1c(O)c3c(c(O)c1C2=O)C[C@@](O)(C(=O)COC(=O)c1cc2ccccc2cc1C(=O)OC[C@H]1O[C@@H]2O[C@H]4[C@H](O)[C@@H](O)[C@@H](O[C@H]5[C@H](O)[C@@H](O)[C@@H](O[C@H]6[C@H](O)[C@@H](O)[C@@H](O[C@H]7[C@H](O)[C@@H](O)[C@@H](O[C@H]8[C@H](O)[C@@H](O)[C@@H](O[C@H]9[C@H](O)[C@@H](O)[C@@H](O[C@H]%10[C@H](O)[C@@H](O)[C@@H](O[C@H]1[C@H](O)[C@H]2O)O[C@@H]%10CO)O[C@@H]9CO)O[C@@H]8CO)O[C@@H]7CO)O[C@@H]6CO)O[C@@H]5CO)O[C@@H]4CO)C[C@@H]3O[C@H]1C[C@H](N)[C@H](O)[C@H](C)O1` [Example 6-ANC, adriamycin (14-position)-naphthalenedicarboxylic acid-(6-position) γ-cyclodextrin conjugate], the “50 % released time of adriamycin” value [1] is reported as “about 65 hours” and the “Cytotoxicity, IC50” value [2] is reported as 0.79 µg/mL.
In the case of `COc1cccc2c1C(=O)c1c(O)c3c(c(O)c1C2=O)C[C@@](O)(C(=O)CO)C[C@@H]3O[C@H]1C[C@H](N)[C@H](O)[C@H](C)O1` [Adriamycin hydrochloride, reference compound], the “Anti-cancer activity, T/C (%)” value ([3]; 0.31 mg/kg/day) is reported as 170%, the Survived mice/test mice ([3]; 0.31 mg/kg/day) is reported as 0/6 and the “Anti-cancer activity, T/C (%)” value ([3]; 0.63 mg/kg/day) is reported as 218%. For the same compound, the Survived mice/test mice ([3]; 0.63 mg/kg/day) was 0/6, the “Anti-cancer activity, T/C (%)” value ([3]; 1.25 mg/kg/day) was 255% and the Survived mice/test mice ([3]; 1.25 mg/kg/day) was 0/6. For the same compound, the “Anti-cancer activity, T/C (%)” value ([3]; 2.50 mg/kg/day) was 177%, the Survived mice/test mice ([3]; 2.50 mg/kg/day) was 0/6 and the “Anti-cancer activity, T/C (%)” value ([3]; 5.00 mg/kg/day) was 132%. For the same compound, the Survived mice/test mice ([3]; 5.00 mg/kg/day) was 0/6.
With `COc1cccc2c1C(=O)c1c(O)c3c(c(O)c1C2=O)C[C@@](O)(C(=O)COC(=O)CCC(=O)OC[C@H]1O[C@@H]2O[C@H]4[C@H](O)[C@@H](O)[C@@H](O[C@H]5[C@H](O)[C@@H](O)[C@@H](O[C@H]6[C@H](O)[C@@H](O)[C@@H](O[C@H]7[C@H](O)[C@@H](O)[C@@H](O[C@H]8[C@H](O)[C@@H](O)[C@@H](O[C@H]9[C@H](O)[C@@H](O)[C@@H](O[C@H]%10[C@H](O)[C@@H](O)[C@@H](O[C@H]1[C@H](O)[C@H]2O)O[C@@H]%10CO)O[C@@H]9CO)O[C@@H]8CO)O[C@@H]7CO)O[C@@H]6CO)O[C@@H]5CO)O[C@@H]4CO)C[C@@H]3O[C@H]1C[C@H](N)[C@H](O)[C@H](C)O1` [Example 6-ASC, adriamycin (14-position)-succinic acid (6-position) γ-cyclodextrin conjugate] the “50 % released time of adriamycin” value [1] was “about 3 hours” and the “Cytotoxicity, IC50” value [2] was 0.21 µg/mL.
In the case of `COc1cccc2c1C(=O)c1c(O)c3c(c(O)c1C2=O)C[C@@](O)(C(=O)CO)C[C@@H]3O[C@H]1C[C@H](N)[C@H](O)[C@H](C)O1` [Adriamycin, adriamycin], the IC50 ([2]; Mus musculus, 48 h, read-out: Cytotoxicity, IC50) is given as 0.058 µg/mL (≈ 0.107 µM) and the LD50 [5] is given as 9.8 mg/kg.
